Data on 4 molecules can be found in patent US9387261B2, “Immunoconjugates targeting CD138 and uses thereof” (priority 2007, dated 2016).

Data set [1] relates to MOLP-8 human multiple myeloma xenografts. The data set can be described thus: MOLP-8 xenograft mouse experiments A, Part I (single bolus i.v. injection). The format is in vivo, CB.17 SCID mice. Conditions: for effect on tumor growth compared with PBS-treated animals: single i.v. bolus, 250 μg/kg maytansinoid (nBT062 antibody […]). On the procedure:
In these mice, subcutaneous tumors were established (female CB.17 SCID mice) by inoculation with MOLP-8 cell suspensions. Treatment with a single bolus intravenous injection was conducted when tumor volumes reached an average 113 mm^3. Changes in tumor volume and body weight were monitored twice per week.
Female CB.17 SCID mice, five weeks old, were obtained from Charles River Laboratories.
MOLP-8, a human multiple myeloma cell line, was supplied from ATCC.
Each mouse was inoculated with 1×10^7 MOLP-8 cells subcutaneously into the area under the right shoulder. The total volume was 0.2 ml per mouse, in which the ratio of serum-free medium to matrigel (BD Bioscience, Bedford, Mass.) was 1/1 (v/v). Prior to treatment, the xenograft tumors were monitored daily and were allowed to become established.
Eleven days after tumor cell inoculation, 42 mice were selected based on tumor volumes and body weights. […] The forty-two mice were randomly divided into seven groups (A-G) of six animals each based on tumor volume.
Each of six mice in Group A received 200 μl of PBS as vehicle control.
All agents were intravenously administered as a single bolus injection through a lateral tail vein with a 1 ml syringe fitted with a 27 gauge, ½ inch needle.

In data set [2] the test system is MOLP-8 tumor xenografts. The data set can be described thus: Bulky MOLP-8 tumor model, Part II / xenograft mouse experiments B (TGD, log cell kill). Format: in vivo, SCID mice. Conditions: 450 μg/kg dose; mean time to reach 160 mm^3 minus control.
Method: In a second set of experiments, MOLP-8 cells (1.5×10^7 cells per mouse), suspended in a 50:50 mixture of serum free media and matrigel were injected subcutaneously in the area under the right shoulder in 100 μl. Tumor volumes reached about 80 mm^3 at day 11 and the mean of the controls was about 750 mm^3 at day 25, post cell inoculation. […] Each mouse in the control group (n=6) received 0.2 ml of sterile PBS administered into the lateral tail vein (i.v.) in a bolus injection. All treatment doses were based on conjugated maytansinoid. […] Mice were randomized into eleven groups (n=6) by tumor volume using the LabCat Program. The tumor volumes ranged from 40.0 to 152.5 mm^3. The mice were dosed based on the individual body weight.
Tumor size was measured twice per week in three dimensions using the LabCat System (Tumor Measurement and Tracking, Innovative Programming Associated, Inc., Princeton, N.J.).
In this set of experiments, eighty-five mice were inoculated with MOLP-8 cells (1.5×10^7 cells/mouse) subcutaneously in the right shoulder. […] Sixty-six SCID mice bearing bulky MOLP-8 tumors with a mean tumor volume of about 80 mm^3 were randomized into eleven treatment groups (n=6).
The conditions of data set [3]: higher; cited from earlier work.

“Also recorded” adds a separate entry of the source.

As to nBT062, the “effect on tumor growth compared with PBS-treated animals” value in data set [1] is reported as “did not cause any significant inhibition of tumor growth”; in data set [1] (listed as huBT062), “no significant impact on tumor growth”.

Turning to “nBT062-DM1: nBT062 conjugate with DM1, linker not stated; TGD of 18 days matches nBT062-SMCC-DM1”, the “TGD (days), tumor growth delay” value in data set [2] came out at 18 days.

In the case of “B-B4-SPP-DM1: conjugate of the murine parental antibody B-B4 with DM1 via SPP linker”, the “effect on tumor growth compared with PBS-treated animals” value in data set [1] was “marked delay in tumor growth”. Besides, the “homogeneity of anti-tumor activity in individual mice” value in data set [1] (single i.v. dose 250 μg/kg, FIG. 9) was “more heterogeneously; also recorded: high binding variation”.

For the molecule `COc1cc2cc(c1Cl)N(C)C(=O)C[C@H](OC(=O)[C@H](C)N(C)C(C)=O)[C@]1(C)O[C@H]1[C@H](C)[C@@H]1C[C@@](O)(NC(=O)O1)[C@H](OC)/C=C/C=C(\C)C2` [maytansine], the “cytotoxicity relative to anti-cancer drugs affecting tubulin polymerization (Vinca alkaloids, taxol)” value in data set [3] is listed as 200-1000 fold.
